We go through three compounds from patent US10065962B2, “Amino pryan ring derivative and composition and use thereof” (Sichuan Haisco Pharmaceutical Co., Ltd., priority 2014, dated 2018).

As a reminder, the AUC(0-t) is the area under the concentration-time curve up to a stated or last time point. One may read the Cmax as the maximum level reached in the sampled fluid or tissue.

The subject of one data set is C57 mice. Briefly: Oral glucose tolerance test (OGTT) in mice. The format is in vivo. The note with it: 10 mg/kg intragastric, glucose 5 g/kg 60 min after administration. As for the experimental part:
The oral glucose tolerance test (OGTT) was performed to evaluate the hypoglycemic effect of the compounds of the present invention in mice. 8-week old male C57 mice were purchased from Beijing Vital River Laboratory Animal Technology Co., Ltd. (Laboratory Animal Certificate No. SCXK (Beijing) 2012-0001) and used in the test The mice were grouped based on the base level of blood sugar after fasted, with 10 animals per group. The test compounds were formulated into a 1 mg/ml suspension and administered intragastrically at a dose of 10 mg/kg, while a blank agent was administered to the blank control group. 60 min after the administration, a 50% aqueous solution of glucose was dosed (5 g/kg), and the blood sugar level of each mouse was measured with a OneTouch blood glucose meter manufactured by Johnson & Johnson at 0 min, 15 min, 30 min, 45 min, 60 min, and 120 min.

The nature of data set [1]: Concentration of the compound in monkey plasma by LC-MS/MS. The class given is in vivo. The settings on record: male, rhesus monkey, Rhesus monkeys, oral 10.0 mg/kg. As for the experimental part: The laboratory animals were healthy male Rhesus monkeys each weighing about 5 kg, provided by Sichuan Primed Bio-tech Group Co. Ltd. Fasted Rhesus monkeys were grouped based on the body weight. […] For the enzymatic activity assay, 40 μl plasma was taken from each test sample, and 10 μl H-Ala-Pro-AFC substrate (0.2 mM) was added thereto, followed by reaction for 15 min. […] The period during which the inhibition of plasma. DPP-IV enzymatic activity was ≥80% was calculated for the test compounds, and the concentration of the compounds in plasma was measured by LC-MS/MS.

Data set [2] in a line: Evaluation of pharmacokinetics in rats. The class given is in vivo. The settings on record: rat, whole blood, po, male SD rats, 5 mg/kg intragastric; for Cmax: read-out: Blood drug level Cmax; for half-life: read-out: Half-life T1/2 (converted). As to the method: Male SD rats (purchased from Vital River Laboratory Animal Technology Co. LTD. License No. 11400700005540) each weighing 200 to 240 g were fasted overnight. On the day of experiments, 3 SD rats were each intragastrically administered with 5 mg/kg compound, and a 0.20 ml blood sample was taken from their jugular veins before the administration and 15 min, 30 min, 45 min, 1 h, 2 h, 4 h, 8 h, 12 h, and 24 h after the administration, to an EDTA tube. Acetonitrile containing an internal reference (verapamil 5.00 ng/ml, and glibenclamide 50.0 ng/ml) was added to the blood sample, followed by vigorous vortexing and centrifuging at 13,000 rpm for 10 min. The supernatant was taken for the LC-MS/MS assay. Pharmacokinetics parameters were calculated by using the non-compartment mode in Pharsight Phoenix 6.3.

A further data set has as its target DPP-IV (Mus musculus, UniProt P28843). In words: Effect of single oral administration on the enzymatic activity of DPP-IV in ob/ob mice. The note with it: read-out: DPP-IV enzymatic activity.
For data set [3], the target named is plasma DPP-IV (Canis lupus familiaris, UniProt A0A8I3Q2I8). The settings on record: beagle dogs, oral 10.0 mg/kg, plasma DPP-IV activity.
Protocol: The laboratory animals were male beagle dogs provided by Chengdu Dashuo Biological Sciences and Technology Co., Ltd. Fasted beagle dogs were grouped based on the body weight. The test group was orally administrated with the test compounds at a dose of 10.0 mg/kg. Blood samples were taken at various time points after the administration and subjected to anticoagulation with EDTA-2Na. […] Plasma was taken and preserved at −20° C. For the enzymatic activity assay, 40 μl plasma was taken from each test sample, and 10 μl H-Ala-Pro-AFC substrate (0.2 mM) was added thereto, followed by reaction for 15 nm.
Data set [4] deals with T1, plasma DPP-IV (Rattus norvegicus, UniProt P14740).
T1 construct: from tissue; host or cells: plasma of SD rats
In words: Enzymatic screening experiment on plasma DPP-IV in rats. The class given is in vivo. The note with it: SD rats, oral 3.0 mg/kg, plasma DPP-IV activity. The text has this:
Fasted rats were grouped based on the body weight.

SMILES strings stand for the structures. Like-named read-outs stand apart in the source and are kept apart here.

DPP-IV, sequence (P28843 37-760 limits assumed): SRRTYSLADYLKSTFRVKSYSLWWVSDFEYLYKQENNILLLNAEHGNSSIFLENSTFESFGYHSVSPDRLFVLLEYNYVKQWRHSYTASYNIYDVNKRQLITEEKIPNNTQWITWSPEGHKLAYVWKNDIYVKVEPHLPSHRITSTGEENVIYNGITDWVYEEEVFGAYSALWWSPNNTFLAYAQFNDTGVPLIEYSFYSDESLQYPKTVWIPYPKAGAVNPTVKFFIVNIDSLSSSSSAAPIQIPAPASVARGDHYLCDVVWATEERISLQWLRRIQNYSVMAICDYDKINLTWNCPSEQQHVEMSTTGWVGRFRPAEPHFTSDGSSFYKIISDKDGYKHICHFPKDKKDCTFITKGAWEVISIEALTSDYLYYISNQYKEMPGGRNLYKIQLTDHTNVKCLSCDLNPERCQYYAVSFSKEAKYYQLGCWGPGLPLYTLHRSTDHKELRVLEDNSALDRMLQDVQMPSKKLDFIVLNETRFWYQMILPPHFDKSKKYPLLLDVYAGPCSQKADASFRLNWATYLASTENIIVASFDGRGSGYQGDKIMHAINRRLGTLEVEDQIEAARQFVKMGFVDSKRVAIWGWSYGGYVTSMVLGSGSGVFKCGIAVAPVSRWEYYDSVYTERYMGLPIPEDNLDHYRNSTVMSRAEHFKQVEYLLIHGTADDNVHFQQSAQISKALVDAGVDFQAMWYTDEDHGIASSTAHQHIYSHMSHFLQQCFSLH
T1 sequence (P14740 37-767 limits assumed): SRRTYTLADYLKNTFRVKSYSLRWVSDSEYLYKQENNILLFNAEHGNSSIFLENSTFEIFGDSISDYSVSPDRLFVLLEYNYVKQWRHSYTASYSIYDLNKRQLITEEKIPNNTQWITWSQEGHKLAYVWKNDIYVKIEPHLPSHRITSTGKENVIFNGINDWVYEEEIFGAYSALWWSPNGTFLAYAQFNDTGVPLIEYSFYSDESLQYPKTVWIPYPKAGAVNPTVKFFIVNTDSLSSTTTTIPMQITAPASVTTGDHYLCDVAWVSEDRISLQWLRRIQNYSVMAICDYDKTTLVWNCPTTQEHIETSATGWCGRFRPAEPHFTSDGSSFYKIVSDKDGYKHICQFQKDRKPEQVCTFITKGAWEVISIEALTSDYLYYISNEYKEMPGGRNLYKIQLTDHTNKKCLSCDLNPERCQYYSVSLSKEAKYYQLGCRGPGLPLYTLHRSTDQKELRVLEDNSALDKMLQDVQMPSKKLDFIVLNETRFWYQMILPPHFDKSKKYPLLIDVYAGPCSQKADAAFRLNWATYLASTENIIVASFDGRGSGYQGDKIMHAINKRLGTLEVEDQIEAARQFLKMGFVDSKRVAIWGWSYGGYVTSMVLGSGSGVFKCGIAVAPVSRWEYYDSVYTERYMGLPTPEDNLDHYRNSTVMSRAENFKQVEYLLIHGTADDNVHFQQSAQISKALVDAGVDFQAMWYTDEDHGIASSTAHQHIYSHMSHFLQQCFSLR
plasma DPP-IV (Canis lupus familiaris, UniProt A0A8I3Q2I8), sequence (A0A8I3Q2I8 1-765): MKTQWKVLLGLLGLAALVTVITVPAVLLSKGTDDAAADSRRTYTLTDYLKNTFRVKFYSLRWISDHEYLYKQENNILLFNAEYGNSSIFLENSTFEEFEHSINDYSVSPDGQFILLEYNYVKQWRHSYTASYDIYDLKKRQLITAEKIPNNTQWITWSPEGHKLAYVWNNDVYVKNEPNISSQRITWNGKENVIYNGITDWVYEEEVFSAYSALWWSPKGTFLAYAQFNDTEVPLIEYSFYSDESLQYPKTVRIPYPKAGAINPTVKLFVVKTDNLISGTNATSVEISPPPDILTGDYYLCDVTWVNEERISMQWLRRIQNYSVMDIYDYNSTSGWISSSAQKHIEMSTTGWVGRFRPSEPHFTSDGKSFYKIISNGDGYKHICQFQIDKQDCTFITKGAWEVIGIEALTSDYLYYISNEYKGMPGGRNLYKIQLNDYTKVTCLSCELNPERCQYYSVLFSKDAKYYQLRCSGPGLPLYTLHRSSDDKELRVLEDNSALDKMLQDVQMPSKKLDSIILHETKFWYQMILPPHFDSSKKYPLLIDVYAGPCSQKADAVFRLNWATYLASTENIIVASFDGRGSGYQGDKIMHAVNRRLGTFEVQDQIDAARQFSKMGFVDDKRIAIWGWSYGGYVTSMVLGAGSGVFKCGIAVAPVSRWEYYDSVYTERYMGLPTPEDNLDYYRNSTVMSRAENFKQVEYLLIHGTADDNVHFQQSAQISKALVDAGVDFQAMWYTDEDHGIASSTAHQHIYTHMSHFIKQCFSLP

For `N[C@H]1C[C@@H](N2Cc3cn(S(=O)(=O)C4CC4)nc3C2)[C@@H](C(F)(F)F)O[C@@H]1c1cc(F)ccc1F` [Compound 1], the “Decrease in AUC (blood sugar, OGTT)” value with C57 mice is listed as 27.20%.

For `CS(=O)(=O)n1cc2c(n1)CN([C@@H]1C[C@H](N)[C@@H](c3cc(F)ccc3F)O[C@@H]1C(F)(F)F)C2` [Compound 3, (2R,3S,5R,6S)-2-(2,5-difluorophenyl)-5-(2-(methylsulfonyl)pyrrolo[3,4-c]pyrazol-5(2H,4H,6H)-yl)-6-(trifluoromethyl)tetrahydro-2H-pyran-3-amine], in data set [1] (0 h), the concentration at 0 h turned out to be 0 nM. This compound also gave a concentration at 0.5 h in data set [1] (0.5 h) of 270 nM. The concentration at 1 h in data set [1] (1 h) stood at 1060 nM. In addition, the concentration at 2 h in data set [1] (2 h) turned out to be 5640 nM. Also, in data set [1] (4 h), the concentration at 4 h worked out at 2560 nM. In data set [1] (8 h), the concentration at 8 h came out at 4220 nM. For the same compound, the concentration at 12 h in data set [1] (12 h) stood at 4010 nM. The concentration at 24 h in data set [1] (24 h) turned out to be 2930 nM. Also, the concentration at 32 h in data set [1] (32 h) is 2560 nM. Further, the concentration at 48 h in data set [1] (48 h) worked out at 1940 nM. In addition, the concentration at 56 h in data set [1] (56 h) is 1280 nM. For the same compound, the concentration at 72 h in data set [1] (72 h) turned out to be 1120 nM. Further, in data set [1] (80 h), the concentration at 80 h was found to be 680 nM. The same compound returned a concentration at 96 h in data set [1] (96 h) of 710 nM. The same compound displayed a concentration at 104 h in data set [1] (104 h) of 440 nM. In addition, the concentration at 120 h in data set [1] (120 h) turned out to be 340 nM. In data set [1] (128 h), this compound came in with a concentration at 128 h of 270 nM. The compound further yielded a concentration at 144 h in data set [1] (144 h) of 210 nM. In data set [1] (152 h), this compound showed a concentration at 152 h of 160 nM. Besides, in data set [1] (168 h), the concentration at 168 h came out at 140 nM. Further, the concentration at 216 h in data set [1] (216 h) amounted to 71 nM. Besides, the concentration at 240 h in data set [1] (240 h) came out at 41 nM. In data set [1] (264 h), this compound registered a concentration at 264 h of 32 nM. In addition, in data set [2], the AUC(0-t) is 106000 ng·h/mL, the Cmax was found to be 11600 ng/mL and the half-life was 7.1 h. Moreover, in the data set with C57 mice, the “Decrease in AUC (blood sugar, OGTT)” value is on record as 27.99%.

For `CS(=O)(=O)n1cc2c(n1)CN([C@H]1CO[C@H](c3cc(F)ccc3F)[C@@H](N)C1)C2` [Omarigliptin], the response vs control in vivo at 30 mg/kg at DPP-IV (2 h) amounted to 5.8%; on DPP-IV (4 h), 5.4%; at DPP-IV (10 h), 5.5%; at DPP-IV (24 h) it was 30%; at DPP-IV (34 h) it was 34.5%; on DPP-IV (48 h), 58.1%. For the same compound, the results for the response vs control in vivo at 30 mg/kg on DPP-IV (58 h) and on DPP-IV (72 h) were 49.9% and 66.7%, respectively. For the same compound, on plasma DPP-IV [3], the “Duration of Inhibition ≥80%” value was determined as 162 h. In data set [2], this compound displayed an AUC(0-t) of 66800 ng·h/mL. Further, the Cmax in data set [2] was found to be 9290 ng/mL. The half-life in data set [2] was 6.1 h. The “Duration of Inhibition ≥70%” value at plasma DPP-IV [4] was 55 h. Also, in the data set with C57 mice, the “Decrease in AUC (blood sugar, OGTT)” value was 22.27%.
